These results are taken from article PMC6005765 (Bioorganic & medicinal chemistry letters, 2018).

In one test the target is δ opioid receptor (DOP) (Homo sapiens, UniProt P41143). It is filed as binding.
A further test concerns the target DOP (Homo sapiens, UniProt P41143). Nature of the test: EPAC cAMP BRET-based biosensor assay, DOP. It is filed as cell-based. For orientation: In BRET a luciferase serves as donor, and the signal depends on an acceptor being close.
In test [1] the test system is guinea pig ileum (GPI), MOP. The settings on record: read-out: IC50 (GPI); agonist potency.
The target of a further test is μ opioid receptor (MOP) (Homo sapiens, UniProt P35372). It is filed as binding. The settings on record: for Selectivity IC50δ/IC50μ: ratio DOP IC50 / MOP IC50.
Sequence of μ opioid receptor (MOP) (P35372 whole entry, species assumed): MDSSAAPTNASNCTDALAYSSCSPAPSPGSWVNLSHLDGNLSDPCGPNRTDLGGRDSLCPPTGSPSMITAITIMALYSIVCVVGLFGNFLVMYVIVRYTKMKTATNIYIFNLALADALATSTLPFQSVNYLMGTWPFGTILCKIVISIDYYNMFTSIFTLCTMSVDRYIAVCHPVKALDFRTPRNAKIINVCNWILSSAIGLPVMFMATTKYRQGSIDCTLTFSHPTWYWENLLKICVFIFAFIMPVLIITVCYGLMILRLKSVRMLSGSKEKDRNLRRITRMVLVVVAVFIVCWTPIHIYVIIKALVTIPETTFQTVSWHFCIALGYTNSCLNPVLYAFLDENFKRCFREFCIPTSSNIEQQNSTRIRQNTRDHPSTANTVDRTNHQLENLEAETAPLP
The next test deals with MOP (Homo sapiens, UniProt P35372). Nature of the test: EPAC cAMP BRET-based biosensor assay, MOP. It is filed as cell-based.
Sequence of MOP (P35372 whole entry): as the sequence (P35372 whole entry, species assumed) above
In the next test the test system is rats. Nature of the test: Tail-flick test on rats after intrathecal administration. It is filed as in vivo, rat. For orientation: In hot-plate and tail-flick tests a longer latency is read as antinociception.
Test [2] deals with μ opioid receptor (UniProt P35372).
The target of test [3] is δ opioid receptor (UniProt P41143).
In test [4] the target is μ opioid receptor (UniProt P35372). This is another data set of the same source.
The target of test [5] is δ opioid receptor (UniProt P41143). The source holds these as a separate data set.
Test [6] concerns the target μ opioid receptor (UniProt P35372). Nature of the test: radioligand binding.
In test [7] the target is δ opioid receptor (UniProt P41143). Nature of the test: radioligand binding.

Starred links: 1 amine or outer side, 2 acyl side, 3 side chain; linkers in the order of their positions; H or OH if unused. Non-standard residues stand in square brackets, D forms with d. Residues, ends and D or L forms follow the SMILES beside them. No end group written: not given here. Phe(2-(4-CF3-phenyl)) = O=C([C@H](Cc1ccccc1-c1ccc(C(F)(F)F)cc1)N[*:1])[*:2]; Phe(2-(2-methyl-1-propenyl)) = CC(C)=Cc1ccccc1C[C@H](N[*:1])C(=O)[*:2]; Phe(2-(3-thienyl)) = O=C([C@H](Cc1ccccc1-c1ccsc1)N[*:1])[*:2]; Phe(2-vinyl) = C=Cc1ccccc1C[C@H](N[*:1])C(=O)[*:2]; Phe(2-Ph) = N[C@@H](Cc1ccccc1-c1ccccc1)C(=O)O; Dmt = Cc1cc(O)cc(C)c1C[C@H](N)C(=O)O

Broadly, the IC50 is the concentration needed to halve the response being measured. What is called EC50 is the concentration needed to bring the measured effect to its halfway point.

As for `Cc1cc(O)cc(C)c1C[C@H](N)C(=O)N[C@H](CCCNC(=N)N)C(=O)N[C@@H](Cc1ccccc1)C(=O)NCC(N)=O` [Compound 19, Dmt-D-Arg-Phe-Gly-NH2] (H-[Dmt][dR]FG-NH2), the IC50 against δ opioid receptor (DOP) was 14 ± 2.7 nM. This molecule had an EC50 on DOP of 1.13 ± 0.2 nM. Moreover, the IC50 in test [1] came out at 2.26 ± 0.37 nM. On μ opioid receptor (MOP), the “Fold increase in MOP affinity compared to DAMGO” value is on record as 10 fold, the half-maximal inhibitory concentration (IC50) amounted to 0.1 ± 0.06 nM and the “Selectivity IC50δ/IC50μ” value was determined as 140. This molecule came in with a half-maximal effective concentration (EC50) at MOP of 0.008 ± 0.002 nM. Besides, in the test on rats, the “Duration of analgesic action on thermal nociception” value (from here on “Duration of analgesic action”) is given as “exceeding 60 min” and the “Effectiveness in reversing nociceptive behavior relative to DAMGO” value was found to be 10 times.

Consider `CC(C)=Cc1ccccc1C[C@H](NC(=O)[C@@H](CCCNC(=N)N)NC(=O)[C@@H](N)Cc1c(C)cc(O)cc1C)C(=O)NCC(N)=O` [Compound 14], for which the “Duration of analgesic action” value in the test on rats was “exceeding 60 min”.

On to `C=Cc1ccccc1C[C@H](NC(=O)[C@@H](C)N(C)C(=O)[C@@H](N)Cc1c(C)cc(O)cc1C)C(=O)NCC(N)=O` [Compound 18, Dmt-N-Me-D-Ala-Phe(2-vinyl)-Gly-NH2], for which the IC50 on δ opioid receptor (DOP) was found to be 59.4 ± 0.8 nM; in test [1], 0.641 ± 0.045 nM; at μ opioid receptor (MOP) it was 0.36 ± 0.09 nM. In addition, the EC50 on DOP came to 4.4 ± 2 nM; on MOP it was 0.003 ± 0.004 nM. The “Selectivity IC50δ/IC50μ” value on μ opioid receptor (MOP) is 165.

On to `Cc1cc(O)cc(C)c1C[C@H](N)C(=O)N[C@H](C)C(=O)N[C@@H](Cc1ccccc1-c1ccccc1)C(=O)NCC(N)=O` [Compound 15, Dmt-D-Ala-Phe(2-phenyl)-Gly-NH2] (H-[Dmt][dA][Phe(2-Ph)]G-NH2), for which the “Duration of analgesic action” value in the test with rats is given as “exceeding 60 min”.

As to `Cc1cc(O)cc(C)c1C[C@H](N)C(=O)N[C@H](CCCNC(=N)N)C(=O)N[C@@H](Cc1ccccc1-c1ccc(F)cc1)C(=O)NCC(N)=O` [Compound 12, Dmt-D-Arg-Phe(2-(4-F-phenyl))-Gly-NH2], the 50% inhibitory concentration (IC50) on δ opioid receptor (DOP) was found to be 435 ± 26 nM; in [1], 0.801 ± 0.086 nM; at μ opioid receptor (MOP) it was 0.47 ± 0.06 nM. Also, the “Selectivity IC50δ/IC50μ” value on μ opioid receptor (MOP) is listed as 925.

For `Cc1cc(O)cc(C)c1C[C@H](N)C(=O)N[C@H](CCCNC(=N)N)C(=O)N[C@@H](Cc1ccccc1-c1ccc(Cl)cc1)C(=O)NCC(N)=O` [Compound 13, Dmt-D-Arg-Phe(2-(4-Cl-phenyl))-Gly-NH2], the IC50 on δ opioid receptor (DOP) was 346 ± 10 nM; in test [1] it was 2.39 ± 0.09 nM; against μ opioid receptor (MOP), 0.35 ± 0.06 nM. Also, on μ opioid receptor (MOP), the “Selectivity IC50δ/IC50μ” value was 989.

Molecule `Cc1cc(O)cc(C)c1C[C@H](N)C(=O)N[C@H](C)C(=O)N[C@@H](Cc1ccccc1)C(=O)NCC(N)=O` [Compound 20, Dmt-D-Ala-Phe-Gly-NH2] (H-[Dmt][dA]FG-NH2) registered an IC50 against δ opioid receptor (DOP) of 22.6 ± 4.6 nM. This molecule also gave an EC50 on DOP of 2.4 ± 1 nM. For the same molecule, the IC50 in test [1] came out at 1.5 ± 0.12 nM. Further, at μ opioid receptor (MOP), the “Fold increase in MOP affinity compared to DAMGO” value was determined as 10 fold; the midpoint of inhibition, the IC50, lay at 0.14 ± 0.05 nM; the “Selectivity IC50δ/IC50μ” value worked out at 161. This molecule yielded a 50% effective concentration (EC50) on MOP of 0.012 ± 0.0007 nM. In the test with rats, the “Duration of analgesic action” value is recorded as “exceeding 60 min” and the “Effectiveness in reversing nociceptive behavior relative to DAMGO” value turned out to be 10 times.

`Cc1cc(O)cc(C)c1C[C@H](N)C(=O)N[C@H](CCCNC(=N)N)C(=O)N[C@@H](Cc1ccccc1-c1ccc(C(F)(F)F)cc1)C(=O)NCC(N)=O` [Compound 11, Dmt-D-Arg-Phe(2-(4-CF3-phenyl))-Gly-NH2]: the IC50 on δ opioid receptor (DOP) stood at 39.2 ± 17 nM; in test [1] it was 1.26 ± 0.17 nM; against μ opioid receptor (MOP) it was 0.07 ± 0.09 nM. For the same molecule, the results for the EC50 at DOP and on MOP were 26.8 ± 6 nM and 0.12 ± 0.05 nM, respectively. The “Selectivity IC50δ/IC50μ” value on μ opioid receptor (MOP) came out at 560.

`COc1ccc(-c2ccccc2C[C@H](NC(=O)[C@@H](CCCNC(=N)N)NC(=O)[C@@H](N)Cc2c(C)cc(O)cc2C)C(=O)NCC(N)=O)cc1` [Compound 10, Dmt-D-Arg-Phe(2-(4-MeO-phenyl))-Gly-NH2]: the IC50 against δ opioid receptor (DOP) came to 70.2 ± 27.2 nM; in test [1], 0.901 ± 0.224 nM; at μ opioid receptor (MOP), 0.47 ± 0.24 nM. In addition, the “Selectivity IC50δ/IC50μ” value on μ opioid receptor (MOP) is reported as 149.

B1: Dmt-D-Ala-Phe-Gly-NH2 (peptide)
peptide: [Dmt][dA]FG-NH2
modifications: N-terminus assumed
SMILES: Cc1cc(O)cc(C)c1C[C@H](N)C(=O)N[C@H](C)C(=O)N[C@@H](Cc1ccccc1)C(=O)NCC(N)=O
For B1, the EPAC MOP EC50 (EPAC cAMP BRET-based biosensor assay) with μ opioid receptor [2] is 0.012 nM. Besides, the EPAC DOP EC50 (EPAC cAMP BRET-based biosensor assay) in the test with δ opioid receptor [3] came to 2.4 nM. Moreover, in the test with μ opioid receptor [4], the IC50 in the guinea pig ileum (GPI) assay was 1.5 nM. Also, the IC50 in the mouse vas deferens (MVD) assay in the test with δ opioid receptor [5] was 1.15 nM.

B2: Dmt-D-Arg-Phe-Gly-NH2 (peptide)
peptide: [Dmt][dR]FG-NH2
modifications: N-terminus assumed
SMILES: Cc1cc(O)cc(C)c1C[C@H](N)C(=O)N[C@H](CCCNC(=N)N)C(=O)N[C@@H](Cc1ccccc1)C(=O)NCC(N)=O
B2 came in with an EPAC DOP EC50 (EPAC cAMP BRET-based biosensor assay) in the test with δ opioid receptor [3] of 1.13 nM. Further, in the test with μ opioid receptor [4], the IC50 in the guinea pig ileum (GPI) assay turned out to be 2.26 nM. Also, in the test with δ opioid receptor [5], the IC50 in the mouse vas deferens (MVD) assay worked out at 0.316 nM.

B3: Dmt-D-Arg-Phe(2-(2-methyl-1-propenyl)-Gly-NH2 (peptide)
peptide: [Dmt][dR][Phe(2-(2-methyl-1-propenyl))]G-NH2
modifications: N-terminus assumed
SMILES: CC(C)=Cc1ccccc1C[C@H](NC(=O)[C@@H](CCCNC(=N)N)NC(=O)[C@@H](N)Cc1c(C)cc(O)cc1C)C(=O)NCC(N)=O
In the test with δ opioid receptor [3], B3 had an EPAC DOP EC50 (EPAC cAMP BRET-based biosensor assay) of 19.4 nM. For the same molecule, the IC50 in the guinea pig ileum (GPI) assay with μ opioid receptor [4] was 0.701 nM. In the test with δ opioid receptor [5], this molecule returned an IC50 in the mouse vas deferens (MVD) assay of 0.63 nM. In addition, the concentration for half-maximal inhibition (IC50) in the test with μ opioid receptor [6] is 0.57 nM; with δ opioid receptor [7], 585 nM.

B4: Dmt-D-Arg-Phe(2-(3-thienyl))-Gly-NH2 (peptide)
peptide: [Dmt][dR][Phe(2-(3-thienyl))]G-NH2
modifications: N-terminus assumed
SMILES: Cc1cc(O)cc(C)c1C[C@H](N)C(=O)N[C@H](CCCNC(=N)N)C(=O)N[C@@H](Cc1ccccc1-c1ccsc1)C(=O)NCC(N)=O
In the test with δ opioid receptor [3], B4 came in with an EPAC DOP EC50 (EPAC cAMP BRET-based biosensor assay) of 49 nM. The molecule also had an IC50 in the guinea pig ileum (GPI) assay with μ opioid receptor [4] of 1.54 nM. The IC50 in the mouse vas deferens (MVD) assay in the test with δ opioid receptor [5] was 2.75 nM. Also, the results for the 50% inhibitory concentration (IC50) with μ opioid receptor [6] and with δ opioid receptor [7] were 1.45 nM and 625 nM, respectively.

B5: Dmt-D-Arg-Phe(2-(4-CF3-phenyl))-Gly-NH2 (peptide)
peptide: [Dmt][dR][Phe(2-(4-CF3-phenyl))]G-NH2
modifications: N-terminus assumed
SMILES: Cc1cc(O)cc(C)c1C[C@H](N)C(=O)N[C@H](CCCNC(=N)N)C(=O)N[C@@H](Cc1ccccc1-c1ccc(C(F)(F)F)cc1)C(=O)NCC(N)=O
In the test with δ opioid receptor [3], B5 came in with an EPAC DOP EC50 (EPAC cAMP BRET-based biosensor assay) of 26.8 nM. This molecule also had an IC50 in the guinea pig ileum (GPI) assay with μ opioid receptor [4] of 1.26 nM. This molecule yielded an IC50 in the mouse vas deferens (MVD) assay with δ opioid receptor [5] of 1.78 nM.

B6: Dmt-D-Ala-Phe(2-(3-thienyl))-Gly-NH2 (peptide)
peptide: [Dmt][dA][Phe(2-(3-thienyl))]G-NH2
modifications: N-terminus assumed
SMILES: Cc1cc(O)cc(C)c1C[C@H](N)C(=O)N[C@H](C)C(=O)N[C@@H](Cc1ccccc1-c1ccsc1)C(=O)NCC(N)=O
In the test with μ opioid receptor [2], B6 gave an EPAC MOP EC50 (EPAC cAMP BRET-based biosensor assay) of 34.8 nM. Also, the IC50 in the guinea pig ileum (GPI) assay with μ opioid receptor [4] is 1.27 nM. In the test with δ opioid receptor [5], this molecule yielded an IC50 in the mouse vas deferens (MVD) assay of 2.16 nM. Besides, the results for the concentration for half-maximal inhibition (IC50) with μ opioid receptor [6] and with δ opioid receptor [7] were 240 nM and 687 nM, respectively.

B7: Dmt-D-Arg-Phe(2-vinyl)-Gly-NH2 (peptide)
peptide: [Dmt][dR][Phe(2-vinyl)]G-NH2
modifications: N-terminus assumed
SMILES: C=Cc1ccccc1C[C@H](NC(=O)[C@@H](CCCNC(=N)N)NC(=O)[C@@H](N)Cc1c(C)cc(O)cc1C)C(=O)NCC(N)=O
With B7, in the test with δ opioid receptor [3], the EPAC DOP EC50 (EPAC cAMP BRET-based biosensor assay) amounted to 7 nM. Besides, the IC50 in the guinea pig ileum (GPI) assay in the test with μ opioid receptor [4] was found to be 0.389 nM. In the test with δ opioid receptor [5], the IC50 in the mouse vas deferens (MVD) assay was 0.406 nM. Further, the half-maximal inhibitory concentration (IC50) with μ opioid receptor [6] worked out at 0.47 nM; with δ opioid receptor [7], 18 nM.
